For assay [1], the target named is T1, human CRTH2 (Homo sapiens, UniProt Q9Y5Y4).
T1 construct: expressed in transfected cells
T1 sequence (Q9Y5Y4 1-395): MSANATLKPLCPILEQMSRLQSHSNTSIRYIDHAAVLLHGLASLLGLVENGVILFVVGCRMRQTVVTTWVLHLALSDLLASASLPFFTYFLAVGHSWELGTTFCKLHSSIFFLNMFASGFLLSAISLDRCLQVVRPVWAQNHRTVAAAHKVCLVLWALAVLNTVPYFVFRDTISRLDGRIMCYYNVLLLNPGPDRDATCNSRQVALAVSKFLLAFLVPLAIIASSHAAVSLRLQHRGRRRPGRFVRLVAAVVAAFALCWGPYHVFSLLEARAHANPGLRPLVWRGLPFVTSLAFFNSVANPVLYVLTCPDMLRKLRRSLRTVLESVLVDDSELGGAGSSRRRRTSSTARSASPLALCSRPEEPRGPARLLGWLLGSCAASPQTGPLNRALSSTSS
The assay is described as follows: Measurement of Ca2+ mobilization in the human CRTH2-transfected L1.2 cell line (Assay 1). The assay is classed as cell-based. Particulars: PGD2-induced Ca2+ mobilization, CRTH2-transfected L1.2 cells, compounds at purity of about 40 to 90%. As for the experimental part:
(§1) Human CRTH2 cDNA was amplified from human eosinophil cDNA with gene specific primers containing restriction sites for cloning into pEAK vector (Edge Bio Systems). The human CRTH2 cDNA was cloned into the mammalian expression vector pEAK. This expression plasmid (40 μg) was transfected into L1.2 cells, at a cell density of 1×10^7 cells/500 μl, by using electroporation apparatus (Gene Pulser II, BioRad) at 250V/1,000 μF. One day after the transfection, puromycin (1 μg/ml, Sigma) was added into the cell culture plates. Two weeks after the transfection, grown cells were picked up for further growth.
Ca^2+ loading buffer was prepared by mixing 5 μl of Fluo-3AM (2 mM in DMSO, final 1 μM, Molecular Probes) and 10 μl of pluronic F-127 (Molecular Probes) and diluting the resulting mixture in 10 ml of Ca^2+ assay buffer (20 mM HEPES pH 7.6, 0.1% BSA, 1 mM probenecid, Hanks' solution). The CRTH2 transfected cells which were prepared in Example 1 were washed with PBS, resuspended in Ca^2+ loading buffer at 1×10^7 cells/ml, and incubated for 60 min at room temperature. After incubation, cells were washed and resuspended in Ca^2+ assay buffer, then dispensed into transparent-bottom 96-well plates (#3631, Costar) at 2×10^5 cells/well. Cells were incubated with various concentrations of test compound for 5 minutes at room temperature. The emitted 480 nm fluorescence was measured on FDSS6000, a Ca^2+-measurement apparatus (Hamamatsu Photonics, Hamamatsu, Japan).
Assay results in Assay 1 are shown in Examples and tables of the Examples below. The data corresponds to the compounds as yielded by solid phase synthesis and thus to levels of purity of about 40 to 90%. For practical reasons, the compounds are grouped in four classes of activity as follows: IC50=A(< or =)10 nM<B(< or =)100 nM<C(< or =)500 nM<D
In general terms: A change in cytosolic calcium serves as a functional read-out for many receptors and channels.

Assay [2] addresses T1, human CRTH2. Description: Human CRTH2 receptor binding assay (Assay 2). The following applies: binding to puromycin-resistant CRTH2 L1.2 transfectants. The procedure:
as §1
CRTH2 transfectants were washed once with PBS and resuspended in binding buffer (50 mM Tris-HCl, pH7.4, 40 mM MgCl2, 0.1% BSA, 0.1% NaN3). 100 μl of cell suspension (2×10^5 cells), [^3H]-labeled PGD2, and various concentrations of test compound were then mixed in a 96-well U-bottom polypropylene plate and incubated for 60 min at room temperature to allow binding to occur. After incubation, the cell suspension was transferred to a filtration plate (#MAFB, Millipore) and washed 3 times with binding buffer. Scintillant was added to the filtration plate, and radioactivity remaining on the filter was measured by TopCount (Packard), a scintillation counter. Non-specific binding was determined by incubating the cell suspension and [^3H]-labeled PGD2 in the presence of 1 μM of unlabeled PGD2.

The mark [3] stands for this setting: read-out: In vitro activity grade.

Read-outs that look alike come from different tables or passages of the source.

Regarding `O=C(O)Cc1c(Cl)nc(Cc2ccc(NC(=O)c3ccc(C(F)(F)F)cc3)cc2)n2ccnc12` [Example 1-1, [7-Chloro-5-(4-{[4-(trifluoromethyl)benzoyl]amino}benzyl)imidazo[1,2-c]pyrimidin-8-yl]acetic acid], the IC50 at human CRTH2 [1] (setting [3]) lay in the range of 10 to 100 nM.

With `O=C(O)Cc1c(Cl)nc(Cc2ccc(NC(=O)c3ccc(Cl)c(Cl)c3)cc2)n2ccnc12` [Example 1-2, (7-chloro-5-{4-[(3,4-dichlorobenzoyl)amino]benzyl}imidazo[1,2-c]pyrimidin-8-yl)acetic acid], at human CRTH2 [1] (read-out: Activity class), the IC50 was under 10 nM.

With `O=C(O)Cc1c(Cl)nc(Cc2ccc(NC(=O)c3ccc4ccccc4c3)cc2)n2ccnc12` [Example 1-3, {7-chloro-5-[4-(2-naphthoylamino)benzyl]imidazo[1,2-c]pyrimidin-8-yl}acetic acid], the IC50 on human CRTH2 [1] (read-out: Activity class) lay in the range of 10 to 100 nM.

With `O=C(O)Cc1c(Cl)nc(Cc2ccc(NC(=O)/C=C/c3ccccc3)cc2)n2ccnc12` [Example 1-4], the IC50 on human CRTH2 [1] (read-out: Activity class) was under 10 nM.

As for `O=C(O)Cc1c(Cl)nc(Cc2ccc(NC(=O)/C=C/c3ccc(Cl)cc3)cc2)n2ccnc12` [Example 1-5, [7-chloro-5-(4-{[(2E)-3-(4-chlorophenyl)prop-2-enoyl]amino}benzyl)imidazo[1,2-c]pyrimidin-8-yl]acetic acid], the IC50 on human CRTH2 [1] (read-out: Activity class) fell in the range of 10 to 100 nM.

`O=C(O)Cc1cnc(Cc2ccc(NC(=O)c3ccc(C(F)(F)F)cc3)cc2)n2ccnc12` [Example 2-1, [5-(4-{[4-(trifluoromethyl)benzoyl]amino}benzyl)imidazo[1,2-c]pyrimidin-8-yl]acetic acid]: the IC50 at human CRTH2 [1] (setting [3]) lay in the range of 10 to 100 nM.

Turning to `O=C(O)Cc1cnc(Cc2ccc(NC(=O)c3ccc(Cl)c(Cl)c3)cc2)n2ccnc12` [Example 2-2, (5-{4-[(3,4-Dichlorobenzoyl)amino]benzyl}imidazo[1,2-c]pyrimidin-8-yl)acetic acid], at human CRTH2 [1] (setting [3]), the IC50 fell in the range of 100 to 500 nM.

Consider `CCCCC[C@H](O)/C=C/[C@H]1C(=O)C[C@H](O)[C@@H]1C/C=C\CCCC(=O)O` [[^3H]-labeled PGD2], for which the Kd (commonly the free concentration of one partner at which half of the binding sites on the other are occupied at equilibrium, for simple one-to-one binding) on human CRTH2 [2] came to 6.3 nM.

For the origin of these results see patent US7750014B2, “Imidazo[1,2-C]pyrimidinylacetic acid derivatives” (Actimis Pharmaceuticals, Inc., priority 2004, dated 2010).
